Key:
influenza virus = test: Inhibition of influenza viral replication in mouse lung (plaque forming assay); set-up: species or system mice; conditions: in vivo, iv, 2 mg/kg
serum IFN-alpha = test: Systemic Type 1 interferon response: serum IFN-alpha by ELISA; conditions: siRNA in lyophilized ND(5)-98-1 nanoparticles, 2 mg/kg IV twice
Procedure: Mice were injected IV twice with lyophilized ND(5)-98-1 (ND98)-siRNA nanoparticles at 2 mg/kg siRNA prior to (a) infection with 12,000 PFU, or (b) blood collection by cardiac puncture. […] (b) Serum IFN-alpha concentration was determined by ELISA.

TLR8 = molecular target: T1, TLR8 (Homo sapiens, UniProt Q9NR97); conditions: cited from earlier work
T1 construct: a strong ligand for both TLR7 and TLR8 in vitro in human PBMCs tranfected with DOTAP; host or cells: human PBMCs (endogenous receptor)
T1 sequence (Q9NR97 27-1041): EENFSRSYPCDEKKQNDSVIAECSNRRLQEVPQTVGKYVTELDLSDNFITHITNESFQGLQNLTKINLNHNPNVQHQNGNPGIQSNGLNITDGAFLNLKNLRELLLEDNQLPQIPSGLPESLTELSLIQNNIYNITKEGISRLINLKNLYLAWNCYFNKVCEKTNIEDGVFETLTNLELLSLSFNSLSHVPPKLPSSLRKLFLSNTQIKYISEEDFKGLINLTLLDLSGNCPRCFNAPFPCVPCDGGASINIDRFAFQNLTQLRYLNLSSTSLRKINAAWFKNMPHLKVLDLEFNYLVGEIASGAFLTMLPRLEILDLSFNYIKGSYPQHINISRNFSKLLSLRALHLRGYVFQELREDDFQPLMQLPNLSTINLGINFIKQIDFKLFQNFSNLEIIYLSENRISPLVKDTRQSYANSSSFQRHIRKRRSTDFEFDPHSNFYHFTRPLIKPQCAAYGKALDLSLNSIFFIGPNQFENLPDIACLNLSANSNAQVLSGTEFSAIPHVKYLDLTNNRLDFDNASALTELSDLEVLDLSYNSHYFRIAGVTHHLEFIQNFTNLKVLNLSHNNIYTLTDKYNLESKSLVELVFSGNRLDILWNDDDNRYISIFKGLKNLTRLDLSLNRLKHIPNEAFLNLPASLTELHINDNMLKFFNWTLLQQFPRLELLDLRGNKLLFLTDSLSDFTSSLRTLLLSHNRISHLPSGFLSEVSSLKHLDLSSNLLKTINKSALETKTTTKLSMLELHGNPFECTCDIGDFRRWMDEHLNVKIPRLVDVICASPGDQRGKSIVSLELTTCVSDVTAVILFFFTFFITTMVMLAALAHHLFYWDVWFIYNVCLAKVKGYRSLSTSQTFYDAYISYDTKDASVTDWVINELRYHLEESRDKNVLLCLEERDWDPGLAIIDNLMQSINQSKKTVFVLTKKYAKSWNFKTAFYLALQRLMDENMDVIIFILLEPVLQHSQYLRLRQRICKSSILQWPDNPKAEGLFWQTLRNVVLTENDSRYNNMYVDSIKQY

TLR7 = molecular target: T2, TLR7 (Homo sapiens, UniProt Q9NYK1); conditions: cited from earlier work
T2 construct: host or cells: human PBMCs (endogenous receptor)
T2 sequence (Q9NYK1 27-1049): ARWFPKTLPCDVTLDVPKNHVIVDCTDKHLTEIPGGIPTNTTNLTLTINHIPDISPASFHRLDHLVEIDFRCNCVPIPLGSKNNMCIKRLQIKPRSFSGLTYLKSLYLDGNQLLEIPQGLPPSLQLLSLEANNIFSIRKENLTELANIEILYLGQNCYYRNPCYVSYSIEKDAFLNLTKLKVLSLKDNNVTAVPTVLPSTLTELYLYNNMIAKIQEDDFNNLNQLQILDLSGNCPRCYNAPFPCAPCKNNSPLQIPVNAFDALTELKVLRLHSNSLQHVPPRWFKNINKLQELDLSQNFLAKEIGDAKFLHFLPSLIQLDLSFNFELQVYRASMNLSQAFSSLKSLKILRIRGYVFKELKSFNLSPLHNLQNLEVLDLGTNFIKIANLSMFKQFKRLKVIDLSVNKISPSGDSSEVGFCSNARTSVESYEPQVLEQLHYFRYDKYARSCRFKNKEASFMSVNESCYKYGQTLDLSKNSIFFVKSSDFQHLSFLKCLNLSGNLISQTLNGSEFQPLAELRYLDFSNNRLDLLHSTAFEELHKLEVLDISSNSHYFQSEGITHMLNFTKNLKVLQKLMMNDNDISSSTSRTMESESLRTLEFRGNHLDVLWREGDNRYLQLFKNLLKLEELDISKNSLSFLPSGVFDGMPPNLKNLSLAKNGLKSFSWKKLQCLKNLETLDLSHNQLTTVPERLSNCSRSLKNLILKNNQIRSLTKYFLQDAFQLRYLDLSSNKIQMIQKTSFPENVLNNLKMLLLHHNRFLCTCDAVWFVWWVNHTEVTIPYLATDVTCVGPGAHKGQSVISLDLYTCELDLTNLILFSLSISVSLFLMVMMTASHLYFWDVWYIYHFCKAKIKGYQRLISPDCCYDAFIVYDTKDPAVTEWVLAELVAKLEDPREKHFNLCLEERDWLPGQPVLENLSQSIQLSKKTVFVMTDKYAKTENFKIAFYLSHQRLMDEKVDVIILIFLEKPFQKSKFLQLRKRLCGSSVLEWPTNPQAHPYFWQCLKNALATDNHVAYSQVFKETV

Substance	viral titer versus nanoparticles formulated with siGFP-949 (influenza virus)	serum IFN-alpha (serum IFN-alpha)	TLR8 agonist activity (TLR8)	TLR7 agonist activity (TLR7)
5′-CUACACAAAUCAGCGAUUUUU-3′ [siBgal-728]	significant reductions	high levels	–	–
5′-GCCACCGAGCCGAAGGCACC-3′ (all phosphorothioate, sugars by position and methylation of C not given here; lipidoid formulation) [R1263]	–	–	low	low
5′-GGAUCUUAUUUCUUCGGAGUU-3′ [siNP-1496]	significant reductions	high levels	–	–
5′-UUGUUGUUGUUGUUGUUGUU-3′ (all phosphorothioate, sugars by position not given here; lipidoid formulation) [R1362]	–	–	highly active	highly active
